The subject of experiment [1] is long non-coding RNA HIFAL. The experiment in a line: Expression of HIFAL in low glucose with αKG. It is filed as cell-based. The settings on record: cell line not stated (Fig. EV5F-G). As for the experimental part: (§1) All αKG rescue experiments were conducted using 10 mM alpha-ketoglutarate (α-KG; Sigma) and α-Mannitol (Sigma) as osmotic control.
(§2) cDNA was prepared using 1 μg of RNA with SuperScript IV Reverse Transcriptase (Invitrogen). SYBR green-based RT-PCR kit (Biorad) was performed using human and mouse primers (See Table EV11). mRNA levels were normalized to GAPDH (ΔCt=Ctgene of interest-Ct GAPDH) and presented as relative mRNA expression (ΔΔCt=2-(ΔCtsample-ΔCtcontrol)). All primers were designed by NCBI Primer-BLAST and purchased from Integrated DNA Technologies.

The subject of experiment [2] is A549 cells. Kind of experiment: αKG rescue in low glucose, western blot and RT-PCR. Type of experiment: cell-based, human. Conditions: A549, 2 hours in low glucose, αKG. As for the experimental part:
(§3) Human lung cancer A549 (CCL-185) and NCI-H358 (CRL-5807) cells lines were purchased from American Type Culture Collection (ATCC, Manassas, VA). Cells were maintained in culture according to manufacturer protocol using Roswell Park Memorial Institute (RPMI) 1640 medium (Corning, Cat. #10-040CV) supplemented with 10% FBS and 5% 1× Pen-Strep and kept in 37° C. and 5% of CO2. Murine 2953A cell line was established in our lab from a KP lung tumor by tissue dissociation. This cell line was maintained in culture in Dulbecco's modified Eagle Medium (DMEM) medium (Corning, Cat. #10-017CV) with 5% FBS and 5% 1× Pen-Strep.
(§4) All experiments in cell lines were performed in biological triplicate. Cells were seeded at same confluence and grown for 5 days (and for some experiments overnight or up to 9 days or 30 days, as indicated in the figures and text) in different concentration of glucose: high (20 mM), low (1 mM) and for some experiments medium (5 mM), as indicated. We used mediums with glutamine and without glucose: RPMI (Corning Cat. #10-043CV) for A549 and NCI-H358 cells, DMEM (ThermoScientific Cat. #11566025) for 2953A cells, supplemented with 10% FBS, 5% of 1× Pen-Strep and complemented with D-Glucose to the desired final concentration, as indicated in the figures.
as §1
(§5) For total protein extraction, cells were harvested, washed twice with ice-cold PBS-EDTA (0.5 mm EDTA), lysed using RIPA buffer (50 mM Tris-HCl pH 7.6, 150 mM NaCl, 0.1% SDS, 0.5% C24H39NaO4, 1% NP-40, 2 mm EDTA, 50 mm NaF) for 15 min on ice and centrifuged at 13,000 rpm for 30 min at +4° C. The resulting protein extracts were quantified using BCA protein assay followed by analysis by SDS-PAGE and Western blotting.
(§6) Histones was extracted from A549, NCI-H358 and 2953A cell lines using the Histone extraction kit (Abcam) according to manufacturer instructions.
(§7) SDS-PAGE and Western blotting analyses were performed using standard protocols. For antibodies information, see Reagents and Tools Table. Western blot images were detected by iBright Imaging Systems (Thermo Fisher Scientific). The protein detected was normalized to Actin or H3 total antibodies, this last in case of histonic extract. Each immunodetection derived from the same membrane was performed with the same exposure times according to the manufacture's antibody guidelines and was cropped only for presentation purposes; this is indicated by a dotted line.
(§8) Total RNA was extracted from A549, NCI-H358 and 2953A by using TRI Reagent Solution (Applied Biosystem), according to manufacturer instruction. RNA concertation was assayed by Nanodrop 3000 spectrophotometer (Thermo Fisher Scientific). Then, 1 μg of RNA was treated with DNase I (Thermo Fisher Scientific) and used for cDNA preparation.
as §2
(In general: In western blotting, separated proteins are transferred to a membrane and probed.)

Experiment [3] has as its system NCI-H358 cells. Kind of experiment: αKG rescue in low glucose, western blot and RT-PCR. It is filed as cell-based, human. The settings on record: NCI-H358, 2 hours in low glucose, αKG. On the procedure:
as §3, §4, §1, §5, §6, §7, §8, §2

Experiment [4] concerns MCF7. The experiment in a line: αKG rescue of FoxA2 in low glucose, western blot. Type of experiment: cell-based, human. The settings on record: MCF7 breast cancer cells, low glucose 5 days. As for the experimental part: (§9) For the glutamine deprivation experiment, A549 and NCI-H358 cell lines were also seeded and grown up to 5 days in DMEM without glutamine and glucose (Corning Cat. #17-207CV) and complemented with L-glutamine (GlutaMAX CTS, Gibco) to a final concentration of either 6 mM (high glutamine) or 2 mM (low glutamine) and D-Glucose to a final concentration of either 10 mM (high glucose) or 1 mM (low glucose). Finally, breast cancer (MCF7) and pancreatic cancer (PANC1) cell lines were purchased from ATCC and were seeded and grown up to 5 days in RPM11640 complemented with D-Glucose to a final concentration of either 20 mM or 1 mM.
as §1, §7

For experiment [5], the system named is PANC1. The experiment in a line: αKG rescue of FoxA2 in low glucose, western blot. Type of experiment: cell-based, human. Conditions: PANC1 pancreas cancer cells, low glucose 5 days. As for the experimental part:
as §9, §1, §7

In experiment [6] the test system is KP mice carrying LUADs. The experiment in a line: ELISA for H3K27me3 in KP tumors after empagliflozin. Type of experiment: in vivo, mouse. Conditions: transthoracic AdenoCre, empagliflozin for 1 week, vs placebo. As for the experimental part:
For the measurement of in vivo HeK27 trimethylation (FIG. 3B), mice (n=4 per group) received transthoracic adenoCre and were treated for 3 weeks with either placebo (0.5% hypromellose-methyl cellulose) or empagliflozin (10 mg/Kg/d by oral gavage) followed by lung collection and histone extraction for ELISA assay.
The levels of trimethylation on H3K27me3 in tumors treated with empaglifozin were detected by ELISA kits (Active Motif) according to the manufacturer's instructions. The experiment was carried out with 4 replicates for each group. After tumor collecting, histone extraction was performed.
We used H3K27me3 and H3 total antibodies for plate coating. The absorbance was detected by Varioskan Lux (Thermo Fisher Scientific). The H3K27me3 levels were normalized to H3 total and presented as optical densitometry (O. D.) 450 nm of a ratio of H3K27me3/H3.
On the technique in general: ELISA stands for enzyme-linked immunosorbent assay.

Experiment [7] deals with KP mice carrying LUADs. Kind of experiment: KP mice treated with empagliflozin for 6 weeks: lung histology (H&E) and IHC. It is filed as in vivo, mouse. On the procedure: (§10) Lung tumors were induced by intranasal administration of Adeno-Cre (purchased from University of Iowa Viral Vector Core) as previously described (Scafoglio et al., 2018), or by transthoracic injection of Adeno-Cre in KPluc mice. All treatment trials were performed 2 weeks after tumor induction, and the results of biological duplicates were pooled for statistical analysis. In all trials, mice were assigned to therapeutic groups so that there were no significant differences in baseline tumor burden, age, sex, or weight among the different groups.
In the trial for assessment of tumor differentiation by immunohistochemistry (FIG. 1A-E, 6L-M, and EV1A-C) lung tumors were induced by intranasal administration of Adeno-Cre. After tumor induction, mice (n=11 for placebo and 13 for empagliflozin group) were treated with either placebo (DMSO 5%, PEG 30%, Tween80 10%) or empagliflozin (10 mg/Kg/d by oral gavage) for 6 weeks and then sacrificed for lung collection and fixation in formalin.
For the GEMMs, the mouse lungs were collected and inflated with 10% formalin in phosphate-buffered saline. After 24 hours, formalin was replaced to 70% ethanol. All tissues were paraffin-embedded and sliced into […] sections in the Translational Pathology Core Laboratory (TPCL) at UCLA.
For IHC staining, the slides were deparaffinized by overnight incubation at 65° C., followed by rehydration by serial passages in xylenes (three washes of 5 min in 100% xylenes) and decreasing concentrations of ethanol (two washes in 100% ethanol, two washes in 95%, one wash in 80%, one wash in 70%, and one wash in water). Antigen retrieval was performed for 23 min in AR6 (pH 6.0) buffer.
Blocking was performed with 5% goat serum for 1 hour at room temperature, followed by incubation with primary antibodies overnight at 4° C. Incubation with biotin-labeled secondary antibody was performed at room temperature for 1 hour, followed by incubation with avidin-biotin peroxidase complex and ImmPACT 3,3′-diaminobenzidine (DAB). Counterstain was performed with Harris' haematoxylin diluted 1:5 in water, followed by […] step and mounting slide. After the staining, digital images of the slides were obtained with an Aperio ScanScope slide scanner (Leica Biosystems). The quantification was performed using the QPath software. Briefly, regions of interests were drawn blindly in each slide to include each tumor present in a whole-lung section, followed by cell detection and quantification of the DAB signal using a constant threshold for all samples in the same experiment. Staining intensity in each cell was classified as negative (0), weak (1), median (2), or strong (3). The results were expressed as H score.
QuPath (Bankhead et al, 2017) was used for signal quantification in IHC staining. It was expressed as H score. Kaplan-Meier curves were performed with Kaplan-Meir Plotter tool (Gyorffy, 2021), using the lung cancer section. For the selected genes only, the best probe was used. All dataset available were used as cohort. For Kaplan-Meier plot performed using multiple genes, the option “use mean expression of selected genes” was set.

Experiment [8] has as its system KP mice carrying LUADs. Kind of experiment: Combination treatment trial in KP mice, tumor burden by bioluminescence imaging. Type of experiment: in vivo, mouse. The settings on record: 6 weeks from week 2, empagliflozin 10 mg/kg/d, tazemetostat 125 mg/kg/bid, oral gavage. As for the experimental part: as §10
In the combination treatment trial (FIG. 3F-G), mice received the first BLI measurement two weeks post-AdenoCre administration for measurement of the baseline tumor burden. Four therapeutic groups were established as follows: (i) Placebo (n=11), receiving oral gavage of vehicle (DMSO 5%, PEG 30%, Tween80 10%); (ii) SGLT2 inhibitor Empaglifozin (10 mg/Kg/d, n=13); (iii) EZH2 inhibitor Tazemetostat (125 mg/Kg/bid, n=10); (iiii) Empaglifozin and Tazemetosat (n=19). Each group received bi-daily administration by oral gavage.

For experiment [9], the system named is KP mice carrying LUADs. The experiment in a line: KP mice treated with empagliflozin for 4 weeks: RT-PCR on lung tumors. The settings on record: vs placebo. It is filed as in vivo, mouse. On the procedure:
as §10
In the trial for assessment of tumor differentiation by RT-PCR (FIGS. 1F and 6C) mice (n=3) received intranasal AdenoCre and treatment with either placebo (0.5% hypromellose-methyl cellulose) or empagliflozin (10 mg/Kg/d by oral gavage) for 4 weeks, followed by tumor collection and RNA extraction. RT-PCR was performed in technical triplicates, yielding a total of 9 experimental points per group.
as §8, §2

Experiment [10] has as its system KP mice carrying LUADs. The experiment in a line: KP mice treated with empagliflozin, ex vivo BLI, then tail vein re-injection of sorted tumor cells in syngeneic mice. Details: species or system mouse. As for the experimental part:
For our studies on the investigation of cell aggressiveness due to the glucose deprivation, we used syngeneic FVB mice. Two experiments were performed, in biological duplicate.
In the second experiment (FIG. 2G-J), KP mice injected transthoracically with AdenoCre were treated for 3 weeks with either placebo (n=3) or empagliflozin (n=3), and sacrificed for lung collection. Tumors were identified in the murine lungs by ex vivo bioluminescence and dissociated. Tumor single cells were resuspended in cold PBS followed by magnetic beads sorting (Miltenyi Biotec) to isolate the Epcam-positive epithelial cells. Finally, sorted tumor cells were injected by tail vein inoculation (1,000,000 cells/mouse) into syngeneic mice (n=6 per group). Tumor burden was measured by bioluminescence until 13 weeks after inoculation.

Where [11] appears, read: empagliflozin 10 mg/kg/d, 6 weeks, vs placebo.
The mark [12] stands for this setting: KP tumors week 6, empagliflozin 4 weeks.

On to `O=C(O)CCC(=O)C(=O)O` [αKG, alpha-ketoglutarate], for which the “activation of HIFAL in low glucose” value in experiment [1] was “completely rescued”. Besides, the “activation of HIF1α after short-time glucose deprivation, western blot” value in experiment [2] and in [3] was “rescued” each time. The “low glucose-induced FoxA2 down-regulation, western blot” value in [4] and in experiment [5] was “rescued” each time.
On to `OC[C@H]1O[C@@H](c2ccc(Cl)c(Cc3ccc(O[C@H]4CCOC4)cc3)c2)[C@H](O)[C@@H](O)[C@@H]1O` [empagliflozin], for which, in experiment [6], the “tri-methylation on H3K27 (H3K27me3 over total H3), ELISA” value was “significant increase”. Moreover, in experiment [7] (empagliflozin 10 mg/kg/d oral gavage, week 2 to week 8 post-AdenoCre, vs placebo), the “differentiation of lung lesions, visual inspection of H&E staining” value was “more poorly differentiated”. In addition, the “clear cell component of tumors” value in [7] (empagliflozin 10 mg/kg/d, 6 weeks, completely absent from placebo tumors) is “some of the tumors in the empagliflozin group had a clear cell component”. In experiment [7] (setting [11]), the “E-cadherin IHC signal (H score)” value is “significant down-regulation”; the “FoxA2 IHC signal (H score)” value was “significant reduction”; the “Ttf-1 IHC signal (H score)” value is on record as “significant reduction”; the “micropapillary component of murine tumors, pathological quantification” value is given as “increasing”. Besides, the “solid component of murine tumors, pathological quantification” value in experiment [7] (setting [11]) is “significantly reducing”. In addition, in experiment [8], the “tumor burden by bioluminescence imaging, compared with placebo” value is reported as “significantly reduced”. In experiment [9] (KP murine tumors, empagliflozin 4 weeks), the “HIF1α RNA levels, RT-PCR” value was “significant up-regulation”. In experiment [9] (KP tumors collected week 6 post-induction, empagliflozin 10 mg/kg/d 4 weeks), the “surfactant protein C (SpC) expression, qPCR” value is listed as “significant reduction”. Moreover, in experiment [9] (setting [12]), the “FoxA2 expression, qPCR” value is given as “significant reduction”; the “FoxJ1 expression (ciliated cell marker), qPCR” value is “reduced expression”; the “HmgA2 expression, qPCR” value is recorded as “increase”; the “Pdpn expression (type I alveolar cell marker), qPCR” value is listed as “reduced expression”. In experiment [9] (setting [12]), the “Scgb3A2 expression (Clara cell marker), qPCR” value was “reduced expression” and the “Ttf1 expression, qPCR” value is listed as “significant reduction”. Moreover, the “tumor burden, ex vivo BLI” value in experiment [10] (KP mice, empagliflozin week 2 to week 5 after transthoracic AdenoCre, vs placebo) is on record as “significantly reduced”. For the same compound, the “tumors formed after re-injection of treated tumor cells in syngeneic mice, BLI” value in experiment [10] (same number of sorted epithelial cells by tail vein, BLI at week 13, vs placebo group) is listed as “formed larger tumors than the placebo group”.

For the origin of these results see patent publication US20250249013A1, “COMBINATION METABOLIC-EPIGENETIC TREATMENT FOR EARLY LUNG CANCER” (THE REGENTS OF THE UNIVERSITY OF CALIFORNIA, priority 2022, published 2025).
